Experimental data reported in US11548870B2, “Compounds useful as inhibitors of helios protein” (Bristol-Myers Squibb Company, priority 2019, dated 2023).

Key:
[1] = target: T1, Helios (Homo sapiens, UniProt Q96SW2+Q9UKS7); assay: Helios Cellular Degradation Assay (flow cytometry, Helios-PE antibody staining, 72 h); format: cell-based; settings: Jurkat cells, 72 h incubation, flow cytometry; for Dmax: Jurkat, read-out: Helios Dmax
T1 construct: fluorescently labelled antibodies against Helios and Ikaros; endogenous in cells; host or cells: Jurkat cells
T1 sequence (Q9UKS7 whole entry): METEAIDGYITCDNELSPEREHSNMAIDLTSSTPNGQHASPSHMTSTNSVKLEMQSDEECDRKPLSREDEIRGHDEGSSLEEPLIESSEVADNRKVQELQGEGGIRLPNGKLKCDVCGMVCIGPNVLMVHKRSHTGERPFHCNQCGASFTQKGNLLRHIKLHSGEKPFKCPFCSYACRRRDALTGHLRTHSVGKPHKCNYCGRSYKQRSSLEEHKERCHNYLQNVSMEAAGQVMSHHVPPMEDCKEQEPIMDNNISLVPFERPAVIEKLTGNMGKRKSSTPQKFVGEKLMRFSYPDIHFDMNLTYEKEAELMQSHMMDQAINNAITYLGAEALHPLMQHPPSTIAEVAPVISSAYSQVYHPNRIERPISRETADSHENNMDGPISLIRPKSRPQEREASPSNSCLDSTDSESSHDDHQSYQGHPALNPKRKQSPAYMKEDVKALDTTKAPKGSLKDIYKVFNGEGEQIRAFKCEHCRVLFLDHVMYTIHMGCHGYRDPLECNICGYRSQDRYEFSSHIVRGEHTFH
T1 sequence (Q96SW2 whole entry): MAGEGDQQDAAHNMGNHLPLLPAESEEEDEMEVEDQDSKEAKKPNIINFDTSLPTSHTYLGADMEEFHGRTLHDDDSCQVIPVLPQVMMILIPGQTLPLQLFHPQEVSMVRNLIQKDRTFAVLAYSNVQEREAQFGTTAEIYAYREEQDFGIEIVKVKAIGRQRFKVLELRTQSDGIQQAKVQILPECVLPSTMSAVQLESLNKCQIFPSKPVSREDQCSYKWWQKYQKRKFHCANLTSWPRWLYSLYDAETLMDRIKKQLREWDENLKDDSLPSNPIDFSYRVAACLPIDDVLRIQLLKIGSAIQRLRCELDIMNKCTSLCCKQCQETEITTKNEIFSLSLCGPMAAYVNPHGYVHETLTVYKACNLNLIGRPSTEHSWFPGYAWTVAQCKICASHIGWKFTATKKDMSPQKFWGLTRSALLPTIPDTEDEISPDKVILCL
T1 sequence (Q16531 whole entry partner): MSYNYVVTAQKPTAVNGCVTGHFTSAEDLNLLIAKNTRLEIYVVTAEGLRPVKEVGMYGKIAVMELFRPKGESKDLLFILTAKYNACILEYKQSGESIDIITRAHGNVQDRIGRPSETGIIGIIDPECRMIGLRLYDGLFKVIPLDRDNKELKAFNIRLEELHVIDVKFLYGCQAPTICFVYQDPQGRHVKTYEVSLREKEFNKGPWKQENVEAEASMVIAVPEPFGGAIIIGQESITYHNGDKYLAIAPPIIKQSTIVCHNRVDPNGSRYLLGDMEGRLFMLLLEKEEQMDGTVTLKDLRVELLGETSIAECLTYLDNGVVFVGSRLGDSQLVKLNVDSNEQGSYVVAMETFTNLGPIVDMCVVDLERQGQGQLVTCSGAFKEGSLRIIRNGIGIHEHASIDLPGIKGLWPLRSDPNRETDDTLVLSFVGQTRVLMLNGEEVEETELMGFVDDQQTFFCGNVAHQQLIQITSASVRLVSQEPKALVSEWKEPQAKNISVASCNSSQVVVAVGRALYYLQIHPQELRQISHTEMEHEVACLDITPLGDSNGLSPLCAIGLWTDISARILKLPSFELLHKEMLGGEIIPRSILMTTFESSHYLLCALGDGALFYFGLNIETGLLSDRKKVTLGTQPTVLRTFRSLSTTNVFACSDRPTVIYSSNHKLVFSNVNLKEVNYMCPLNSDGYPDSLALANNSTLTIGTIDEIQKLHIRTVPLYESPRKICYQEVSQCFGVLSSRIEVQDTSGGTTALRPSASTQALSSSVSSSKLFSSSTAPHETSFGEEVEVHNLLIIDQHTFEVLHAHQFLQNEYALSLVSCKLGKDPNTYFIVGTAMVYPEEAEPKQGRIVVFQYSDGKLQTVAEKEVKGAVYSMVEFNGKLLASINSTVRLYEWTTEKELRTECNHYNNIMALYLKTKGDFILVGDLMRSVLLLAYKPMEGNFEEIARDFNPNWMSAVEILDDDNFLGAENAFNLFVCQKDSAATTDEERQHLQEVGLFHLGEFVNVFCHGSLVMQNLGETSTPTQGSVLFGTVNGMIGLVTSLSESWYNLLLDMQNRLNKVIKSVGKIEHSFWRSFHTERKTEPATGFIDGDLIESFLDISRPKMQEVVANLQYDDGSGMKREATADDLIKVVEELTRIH
Outline: (§1)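 Jurkat cells (80,000/well, RPMI+10% FBS) were exposed to compound for 72 h at 37 °C, then fixed, permeabilized and co-stained for 1 h with Ikaros-Alexa488 and Helios-PE antibodies. Intracellular protein levels were read by flow cytometry.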

[2] = target: T2, Ikaros (Homo sapiens, UniProt Q13422); assay: Helios Cellular Degradation Assay, Ikaros readout (flow cytometry, Ikaros-Alexa488 antibody staining, 72 h); format: cell-based; settings: Jurkat cells, 72 h incubation, flow cytometry; for Dmax: Jurkat, read-out: Ikaros Dmax
T2 construct: fluorescently labelled antibodies against Helios and Ikaros; endogenous in cells; host or cells: Jurkat cells
T2 sequence (Q96SW2 whole entry partner): as the sequence (Q96SW2 whole entry) above
T2 sequence (Q16531 whole entry partner): as the sequence (Q16531 whole entry partner) above
T2 sequence (Q13422 whole entry): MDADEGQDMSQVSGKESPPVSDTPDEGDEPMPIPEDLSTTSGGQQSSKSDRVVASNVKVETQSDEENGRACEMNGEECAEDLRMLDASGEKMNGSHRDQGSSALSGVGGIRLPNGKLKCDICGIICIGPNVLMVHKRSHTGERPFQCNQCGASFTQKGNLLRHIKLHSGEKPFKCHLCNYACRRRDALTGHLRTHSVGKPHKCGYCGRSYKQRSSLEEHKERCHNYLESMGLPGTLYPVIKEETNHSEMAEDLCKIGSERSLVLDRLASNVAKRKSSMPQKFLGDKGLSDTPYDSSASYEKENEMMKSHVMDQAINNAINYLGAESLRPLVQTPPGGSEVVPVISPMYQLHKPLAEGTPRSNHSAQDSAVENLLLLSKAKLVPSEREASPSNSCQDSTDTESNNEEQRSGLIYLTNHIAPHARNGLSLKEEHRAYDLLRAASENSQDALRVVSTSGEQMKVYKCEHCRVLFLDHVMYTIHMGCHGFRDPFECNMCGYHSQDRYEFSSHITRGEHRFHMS
Outline: as §1

CC(C)(C)CNCc1ccnc(-c2ccc3c(c2)CN(C2CCC(=O)NC2=O)C3=O)c1 (centres unmarked) [Example 65, 3-(5-(4-((neopentylamino)methyl)pyridin-2-yl)-1-oxoisoindolin-2-yl)piperidine-2,6-dione]
DC50 [1]: 55 nM
Dmax [1]: 70%
DC50 [2]: > 10 µM
Dmax [2]: 7%

O=C1CCC(N2Cc3cc(-c4cc(CNCC5CCCO5)ccn4)ccc3C2=O)C(=O)N1 (centres unmarked) [Example 66, 3-(1-oxo-5-(4-((((tetrahydrofuran-2-yl)methyl)amino)methyl)pyridin-2-yl)isoindolin-2-yl)piperidine-2,6-dione]
DC50 [1]: > 10000 nM
Dmax [1]: 26%
DC50 [2]: > 10 µM
Dmax [2]: 7%

COc1ccc(CNCc2ccnc(-c3ccc4c(c3)CN(C3CCC(=O)NC3=O)C4=O)c2)cc1 (centres unmarked) [Example 67, 3-(5-(4-(((4-methoxybenzyl)amino)methyl)pyridin-2-yl)-1-oxoisoindolin-2-yl)piperidine-2,6-dione]
DC50 [1]: > 10000 nM
Dmax [1]: 41%
DC50 [2]: > 10 µM
Dmax [2]: 6%

COCCNCc1ccnc(-c2ccc3c(c2)CN(C2CCC(=O)NC2=O)C3=O)c1 (centres unmarked) [Example 68, 3-(5-(4-(((2-methoxyethyl)amino)methyl)pyridin-2-yl)-1-oxoisoindolin-2-yl)piperidine-2,6-dione]
DC50 [1]: 192 nM
Dmax [1]: 71%
DC50 [2]: > 10 µM
Dmax [2]: 15%

C[C@H]1CCCN1Cc1ccnc(-c2ccc3c(c2)CN(C2CCC(=O)NC2=O)C3=O)c1 (stereo partly drawn) [Example 69, 3-(5-(4-(((S)-2-methylpyrrolidin-1-yl)methyl)pyridin-2-yl)-1-oxoisoindolin-2-yl)piperidine-2,6-dione]
DC50 [1]: 783 nM
Dmax [1]: 57%
DC50 [2]: > 10 µM
Dmax [2]: 0%

C[C@@H]1CCN(Cc2ccnc(-c3ccc4c(c3)CN(C3CCC(=O)NC3=O)C4=O)c2)C1 (stereo partly drawn) [Example 70, 3-(5-(4-(((R)-3-methylpyrrolidin-1-yl)methyl)pyridin-2-yl)-1-oxoisoindolin-2-yl)piperidine-2,6-dione]
DC50 [1]: 19 nM
Dmax [1]: 79%
DC50 [2]: > 10 µM
Dmax [2]: 10%

C[C@@H]1CCCCN1Cc1ccnc(-c2ccc3c(c2)CN(C2CCC(=O)NC2=O)C3=O)c1 (stereo partly drawn) [Example 71, 3-(5-(4-(((R)-2-methylpiperidin-1-yl)methyl)pyridin-2-yl)-1-oxoisoindolin-2-yl)piperidine-2,6-dione]
DC50 [1]: > 10000 nM
Dmax [1]: 17%
DC50 [2]: > 10 µM
Dmax [2]: 8%

C[C@H]1CCN(Cc2ccnc(-c3ccc4c(c3)CN(C3CCC(=O)NC3=O)C4=O)c2)C1 (stereo partly drawn) [Example 72, 3-(5-(4-(((S)-3-methylpyrrolidin-1-yl)methyl)pyridin-2-yl)-1-oxoisoindolin-2-yl) piperidine-2,6-dione]
DC50 [1]: 13 nM
Dmax [1]: 90%
DC50 [2]: > 10 µM
Dmax [2]: 13%

C[C@H]1CCCN(Cc2ccnc(-c3ccc4c(c3)CN(C3CCC(=O)NC3=O)C4=O)c2)C1 (stereo partly drawn) [Example 73, 3-(5-(4-(((S)-3-methylpiperidin-1-yl)methyl)pyridin-2-yl)-1-oxoisoindolin-2-yl)piperidine-2,6-dione]
DC50 [1]: 45 nM
Dmax [1]: 62%
DC50 [2]: > 10 µM
Dmax [2]: 13%

C[C@H]1CCCCN1Cc1ccnc(-c2ccc3c(c2)CN(C2CCC(=O)NC2=O)C3=O)c1 (stereo partly drawn) [Example 74, 3-(5-(4-(((S)-2-methylpiperidin-1-yl)methyl)pyridin-2-yl)-1-oxoisoindolin-2-yl)piperidine-2,6-dione]
DC50 [1]: 2500 nM
Dmax [1]: 53%
DC50 [2]: > 10 µM
Dmax [2]: 16%

C[C@@H]1CCCN(Cc2ccnc(-c3ccc4c(c3)CN(C3CCC(=O)NC3=O)C4=O)c2)C1 (stereo partly drawn) [Example 75, 3-(5-(4-(((R)-3-methylpiperidin-1-yl)methyl)pyridin-2-yl)-1-oxoisoindolin-2-yl)piperidine-2,6-dione]
DC50 [1]: 14 nM
Dmax [1]: 94%
DC50 [2]: > 10 µM
Dmax [2]: 10%

O=C1CCC(N2Cc3cc(-c4cc(CN5CCC5c5ccccc5)ccn4)ccc3C2=O)C(=O)N1 (centres unmarked) [Example 76, 3-(1-oxo-5-(4-((2-phenylazetidin-1-yl)methyl)pyridin-2-yl)isoindolin-2-yl) piperidine-2,6-dione]
DC50 [1]: 6 nM
Dmax [1]: 98%
DC50 [2]: > 10 µM
Dmax [2]: 12%

O=C1CCC(N2Cc3cc(-c4cc(CNC5(C6CC6)CCC5)ccn4)ccc3C2=O)C(=O)N1 (centres unmarked) [Example 77, 3-(5-(4-(((1-cyclopropylcyclobutyl)amino)methyl)pyridin-2-yl)-1-oxoisoindolin-2-yl)piperidine-2,6-dione]
DC50 [1]: 12 nM
Dmax [1]: 85%
DC50 [2]: > 10 µM
Dmax [2]: 12%

CN1C[C@@H]2CN(Cc3ccnc(-c4ccc5c(c4)CN(C4CCC(=O)NC4=O)C5=O)c3)C[C@@H]2C1 (stereo partly drawn) [Example 78, 3-(5-(4-(((3aR,6aS)-5-methylhexahydropyrrolo[3,4-c]pyrrol-2(1H)-yl)methyl)pyridin-2-yl)-1-oxoisoindolin-2-yl)piperidine-2,6-dione]
DC50 [1]: > 10000 nM
Dmax [1]: 49%
DC50 [2]: > 10 µM
Dmax [2]: 0%

O=C1CCC(N2Cc3cc(-c4cc(CN5CC6CC5CO6)ccn4)ccc3C2=O)C(=O)N1 (centres unmarked) [Example 79, 3-(5-(4-((2-oxa-5-azabicyclo[2.2.1]heptan-5-yl)methyl)pyridin-2-yl)-1-oxoisoindolin-2-yl) piperidine-2,6-dione]
DC50 [1]: > 10000 nM
Dmax [1]: 26%
DC50 [2]: > 10 µM
Dmax [2]: 8%

CC1CC(NCc2ccnc(-c3ccc4c(c3)CN(C3CCC(=O)NC3=O)C4=O)c2)CCO1 (centres unmarked) [Example 80, 3-(5-(4-(((2-methyltetrahydro-2H-pyran-4-yl)amino)methyl)pyridin-2-yl)-1-oxoisoindolin-2-yl)piperidine-2,6-dione]
DC50 [1]: 35 nM
Helios Dmax [1]: 99%
DC50 [2]: > 10 µM
Ikaros Dmax [2]: 12%

C[C@@H]1C[C@H](C)CN(Cc2ccnc(-c3ccc4c(c3)CN(C3CCC(=O)NC3=O)C4=O)c2)C1 (stereo partly drawn) [Example 81, 3-(5-(4-(((3S,5R)-3,5-dimethylpiperidin-1-yl)methyl)pyridin-2-yl)-1-oxoisoindolin-2-yl)piperidine-2,6-dione]
DC50 [1]: 78 nM
Dmax [1]: 64%
DC50 [2]: > 10 µM
Dmax [2]: 26%

CC1(C)CCN(Cc2ccnc(-c3ccc4c(c3)CN(C3CCC(=O)NC3=O)C4=O)c2)CC1 (centres unmarked) [Example 82, 3-(5-(4-((4,4-dimethylpiperidin-1-yl)methyl)pyridin-2-yl)-1-oxoisoindolin-2-yl)piperidine-2,6-dione]
DC50 [1]: 9 nM
Dmax [1]: 89%
DC50 [2]: > 10 µM
Dmax [2]: 17%

O=C1CCC(N2Cc3cc(-c4cc(CN5CC(c6ccccc6)C5)ccn4)ccc3C2=O)C(=O)N1 (centres unmarked) [Example 83, 3-(1-oxo-5-(4-((3-phenylazetidin-1-yl)methyl)pyridin-2-yl)isoindolin-2-yl)piperidine-2,6-dione]
DC50 [1]: 7 nM
Dmax [1]: 91%
DC50 [2]: > 10 µM
Dmax [2]: 20%

O=C1CCC(N2Cc3cc(-c4cc(CN[C@@H]5CCC[C@@H]5c5ccccc5)ccn4)ccc3C2=O)C(=O)N1 (stereo partly drawn) [Example 84, 3-(1-oxo-5-(4-((((1R,2R)-2-phenylcyclopentyl)amino)methyl)pyridin-2-yl)isoindolin-2-yl)piperidine-2,6-dione]
DC50 [1]: 40 nM
Dmax [1]: 69%
DC50 [2]: > 10 µM
Dmax [2]: 4%
